Source: publication PMC12250302, “Synthesis, Antimicrobial Activities, and Model of Action of Novel Tetralone Derivatives Containing Aminoguanidinium Moiety” (International Journal of Molecular Sciences, 2025)
In brackets after ≈: the same amount, converted by molar mass.

How the values were obtained:
Assay in all cases: MIC and MBC testing, broth microdilution
P. aeruginosa ATCC 27853 = assay type: cell-based, Pseudomonas aeruginosa; conditions: Pseudomonas aeruginosa; for MIC: ATCC27853, 18 h, read-out: MIC; for MBC: ATCC27853, read-out: MBC
Text: (§1) The minimum inhibitory concentrations (MICs) and minimum bactericidal concentrations (MBCs) of the synthesized compounds effective against ESKAPE strains, S. aureus clinical isolates, and MRSA were investigated by the broth dilution method. Levofloxacin is a broad-spectrum antibacterial agent that is widely used in the treatment of ESKAPE infections. Therefore, levofloxacin was selected as the positive control for the preliminary activity screening. DMSO (0.1%) was selected as the negative control.
(§2) The minimum inhibitory concentration (MIC) of all synthesized compounds was tested by the broth microdilution method. In brief, compounds dissolved in DMSO were diluted twice continuously in a 96-well plate with MH broth. The ESKAPE pathogens (E. coli ATCC 25922, S. aureus ATCC 29213, K. pneumoniae ATCC 700603, A. baumannii ATCC 19606, P. aeruginosa ATCC 27853, and E. faecium ATCC 35667), clinical S. aureus isolates (LMY45, LMY46, LMY47, and LMY48) and methicillin-resistant Staphylococcus aureus (MRSA-1 and MRSA-2) were cultured in MH broth to logarithmic growth phase and then diluted to 1 × 10^6 CFU/mL in MH broth. Subsequently, the diluted bacterial solution was mixed with the diluted compound solution in a 96-well plate and incubated at 37 °C for a duration of 18 h. The MIC of the compounds was recorded as the lowest concentration at which no visible growth was observed. […] Each concentration was replicated thrice.

E. faecium ATCC 35667 = assay type: cell-based, Enterococcus faecium; conditions: Enterococcus faecium, ATCC35667, E. faecium ATCC 35667; for MIC: 18 h, read-out: MIC; for MBC: read-out: MBC
Text: as §1, §2

S. aureus ATCC 29213 = assay type: cell-based, Staphylococcus aureus; conditions: Staphylococcus aureus, ATCC29213, S. aureus ATCC 29213; for MIC: 18 h, read-out: MIC; for MBC: read-out: MBC
Text: as §1, §2

MRSA-2 = assay type: cell-based, Staphylococcus aureus; conditions: Staphylococcus aureus, MRSA-2; for MIC: 18 h, read-out: MIC; for MBC: read-out: MBC
Protocol: (§3) Furthermore, the MBC values of the compounds were detected.
as §2, with “h.” for “h. The MIC of the compounds was recorded as the lowest concentration at which no visible growth was observed.”

[1] = tested on: clinical S. aureus isolate LMY48; assay type: cell-based, Staphylococcus aureus; conditions: Staphylococcus aureus, LMY48; for MIC: 18 h, read-out: MIC; for MBC: read-out: MBC
Protocol: as §3
as §2, with “h.” for “h. The MIC of the compounds was recorded as the lowest concentration at which no visible growth was observed.”

[2] = tested on: clinical S. aureus isolate LMY46; assay type: cell-based, Staphylococcus aureus; conditions: Staphylococcus aureus, LMY46; for MIC: 18 h, read-out: MIC; for MBC: read-out: MBC
Protocol: as §3
as §2, with “h.” for “h. The MIC of the compounds was recorded as the lowest concentration at which no visible growth was observed.”

[3] = tested on: clinical S. aureus isolate LMY45; assay type: cell-based, Staphylococcus aureus; conditions: Staphylococcus aureus, LMY45; for MIC: 18 h, read-out: MIC; for MBC: read-out: MBC
Protocol: as §3
as §2, with “h.” for “h. The MIC of the compounds was recorded as the lowest concentration at which no visible growth was observed.”

[4] = tested on: clinical S. aureus isolate LMY47; assay type: cell-based, Staphylococcus aureus; conditions: Staphylococcus aureus, LMY47; for MIC: 18 h, read-out: MIC; for MBC: read-out: MBC
Protocol: as §3
as §2, with “h.” for “h. The MIC of the compounds was recorded as the lowest concentration at which no visible growth was observed.”

MRSA-1 = assay type: cell-based, Staphylococcus aureus; conditions: Staphylococcus aureus, MRSA-1; for MIC: 18 h, read-out: MIC; for MBC: read-out: MBC
Protocol: as §3
as §2, with “h.” for “h. The MIC of the compounds was recorded as the lowest concentration at which no visible growth was observed.”

E. coli ATCC 25922 = assay type: cell-based, Escherichia coli; conditions: Escherichia coli; for MIC: ATCC25922, 18 h, read-out: MIC; for MBC: ATCC25922, read-out: MBC
Text: as §1, §2

[5] = tested on: K. pneumoniae ATCC 700603; assay type: cell-based, Klebsiella pneumoniae; conditions: Klebsiella pneumoniae; for MIC: ATCC700603, 18 h, read-out: MIC; for MBC: ATCC700603, read-out: MBC
Text: as §1, §2

A. baumannii ATCC 19606 = assay type: cell-based, Acinetobacter baumannii; conditions: Acinetobacter baumannii; for MIC: ATCC19606, 18 h, read-out: MIC; for MBC: ATCC19606, read-out: MBC
Text: as §1, §2

MIC (P. aeruginosa ATCC 27853)	MIC (E. faecium ATCC 35667)	MIC (S. aureus ATCC 29213)	MIC (MRSA-2)	MIC [1]	MIC [2]	MIC [3]	MIC [4]	MIC (MRSA-1)	MIC (E. coli ATCC 25922)	MIC [5]	SMILES	MBC (E. faecium ATCC 35667)	MBC (S. aureus ATCC 29213)	MBC (MRSA-2)	MBC [1]	MBC [2]	MBC [3]	MBC [4]	MBC (MRSA-1)	MBC (E. coli ATCC 25922)	other results
32 µg/mL (≈ 92.9 µM)	4 µg/mL (≈ 11.6 µM)	2 µg/mL (≈ 5.81 µM)	2 µg/mL (≈ 5.81 µM)	2 µg/mL (≈ 5.81 µM)	2 µg/mL (≈ 5.81 µM)	2 µg/mL (≈ 5.81 µM)	2 µg/mL (≈ 5.81 µM)	2 µg/mL (≈ 5.81 µM)	8 µg/mL (≈ 23.2 µM)	16 µg/mL (≈ 46.5 µM)	[H]/N=C(\N)NN=C1CCCc2cc(OCc3cc(F)cc(F)c3)ccc21 [Compound 1G, (E)-2-(6-((3,5-difluorobenzyl)oxy)-3,4-dihydronaphthalen-1(2H)-ylidene)hydrazine-1-carboximidamide]	8 µg/mL (≈ 23.2 µM)	8 µg/mL (≈ 23.2 µM)	16 µg/mL (≈ 46.5 µM)	2 µg/mL (≈ 5.81 µM)	8 µg/mL (≈ 23.2 µM)	4 µg/mL (≈ 11.6 µM)	8 µg/mL (≈ 23.2 µM)	16 µg/mL (≈ 46.5 µM)	16 µg/mL (≈ 46.5 µM)	MBC [5]: 16 µg/mL (≈ 46.5 µM); MIC (A. baumannii ATCC 19606): 8 µg/mL (≈ 23.2 µM); MBC (A. baumannii ATCC 19606): 8 µg/mL (≈ 23.2 µM)
32 µg/mL (≈ 92.9 µM)	4 µg/mL (≈ 11.6 µM)	2 µg/mL (≈ 5.81 µM)	2 µg/mL (≈ 5.81 µM)	2 µg/mL (≈ 5.81 µM)	2 µg/mL (≈ 5.81 µM)	2 µg/mL (≈ 5.81 µM)	2 µg/mL (≈ 5.81 µM)	2 µg/mL (≈ 5.81 µM)	4 µg/mL (≈ 11.6 µM)	16 µg/mL (≈ 46.5 µM)	[H]/N=C(\N)NN=C1CCCc2cc(OCc3ccc(F)c(F)c3)ccc21 [Compound 1H, (E)-2-(6-((3,4-difluorobenzyl)oxy)-3,4-dihydronaphthalen-1(2H)-ylidene)hydrazine-1-carboximidamide]	16 µg/mL (≈ 46.5 µM)	8 µg/mL (≈ 23.2 µM)	8 µg/mL (≈ 23.2 µM)	4 µg/mL (≈ 11.6 µM)	> 32 µg/mL	4 µg/mL (≈ 11.6 µM)	8 µg/mL (≈ 23.2 µM)	32 µg/mL (≈ 92.9 µM)	16 µg/mL (≈ 46.5 µM)	MBC (P. aeruginosa ATCC 27853): 32 µg/mL (≈ 92.9 µM); MBC [5]: 32 µg/mL (≈ 92.9 µM); MIC (A. baumannii ATCC 19606): 8 µg/mL (≈ 23.2 µM); MBC (A. baumannii ATCC 19606): 8 µg/mL (≈ 23.2 µM)
32 µg/mL (≈ 85 µM)	4 µg/mL (≈ 10.6 µM)	2 µg/mL (≈ 5.31 µM)	2 µg/mL (≈ 5.31 µM)	2 µg/mL (≈ 5.31 µM)	2 µg/mL (≈ 5.31 µM)	1 µg/mL (≈ 2.66 µM)	2 µg/mL (≈ 5.31 µM)	2 µg/mL (≈ 5.31 µM)	4 µg/mL (≈ 10.6 µM)	32 µg/mL (≈ 85 µM)	[H]/N=C(\N)NN=C1CCCc2cc(OCc3cccc(C(F)(F)F)c3)ccc21 [Compound 1I, (E)-2-(6-((3-(trifluoromethyl)benzyl)oxy)-3,4-dihydronaphthalen-1(2H)-ylidene)hydrazine-1-carboximidamide]	8 µg/mL (≈ 21.3 µM)	16 µg/mL (≈ 42.5 µM)	4 µg/mL (≈ 10.6 µM)	2 µg/mL (≈ 5.31 µM)	4 µg/mL (≈ 10.6 µM)	4 µg/mL (≈ 10.6 µM)	2 µg/mL (≈ 5.31 µM)	16 µg/mL (≈ 42.5 µM)	4 µg/mL (≈ 10.6 µM)	MBC (P. aeruginosa ATCC 27853): 32 µg/mL (≈ 85 µM); MBC [5]: 32 µg/mL (≈ 85 µM); MIC (A. baumannii ATCC 19606): 8 µg/mL (≈ 21.3 µM); MBC (A. baumannii ATCC 19606): 8 µg/mL (≈ 21.3 µM)
16 µg/mL (≈ 42.5 µM)	2 µg/mL (≈ 5.31 µM)	2 µg/mL (≈ 5.31 µM)	2 µg/mL (≈ 5.31 µM)	2 µg/mL (≈ 5.31 µM)	2 µg/mL (≈ 5.31 µM)	2 µg/mL (≈ 5.31 µM)	2 µg/mL (≈ 5.31 µM)	1 µg/mL (≈ 2.66 µM)	4 µg/mL (≈ 10.6 µM)	16 µg/mL (≈ 42.5 µM)	[H]/N=C(\N)NN=C1CCCc2cc(OCc3ccc(C(F)(F)F)cc3)ccc21 [Compound 1J, (E)-2-(6-((4-(trifluoromethyl)benzyl)oxy)-3,4-dihydronaphthalen-1(2H)-ylidene)hydrazine-1-carboximidamide]	4 µg/mL (≈ 10.6 µM)	16 µg/mL (≈ 42.5 µM)	32 µg/mL (≈ 85 µM)	2 µg/mL (≈ 5.31 µM)	16 µg/mL (≈ 42.5 µM)	2 µg/mL (≈ 5.31 µM)	4 µg/mL (≈ 10.6 µM)	8 µg/mL (≈ 21.3 µM)	4 µg/mL (≈ 10.6 µM)	MBC (P. aeruginosa ATCC 27853): > 32 µg/mL; MBC [5]: 32 µg/mL (≈ 85 µM); MIC (A. baumannii ATCC 19606): 8 µg/mL (≈ 21.3 µM); MBC (A. baumannii ATCC 19606): 8 µg/mL (≈ 21.3 µM)
